The values below come from article PMC9986241 (Signal Transduction and Targeted Therapy, 2023).

Common to all, as to test: KinaseProfiler enzyme profiling
Type in all cases: biochemical

One test has as its target T1, B-Raf(V599E)(h) (Homo sapiens, UniProt P15056, V600E).
T1 construct: purchased Eurofins KinaseProfiler
As to the method: (§1) Enzyme profiling services were provided by KinaseProfiler™ (Eurofin, Brussels, Belgium). The concentration of erianin was 100 nM, and total 70 kinases were tested in this in vitro screening and profiling services (2 repetitions). For more details, refer to the manufacturer’s instructions (www.eurofinsdiscoveryservices.com).

The next test has as its target T2, B-Raf(h) (Homo sapiens, UniProt P15056).
T2 construct: purchased Eurofins KinaseProfiler
The protocol:
as §1

In another test the target is T3, BRK(h) (Homo sapiens, UniProt Q13882).
T3 construct: purchased Eurofins KinaseProfiler
As to the method:
as §1

Another test has as its target T4, CDK1/cyclinB(h) (Homo sapiens, UniProt P06493).
T4 construct: purchased Eurofins KinaseProfiler
As to the method:
as §1

A further test has as its target T5, CK1γ1(h) (Homo sapiens, UniProt Q9HCP0).
T5 construct: purchased Eurofins KinaseProfiler
As to the method:
as §1

For a further test, the target named is T6, DCAMKL3(h) (Homo sapiens, UniProt Q9C098).
T6 construct: purchased Eurofins KinaseProfiler
The protocol: as §1

The target in a further test is T7, FGFR1(h) (Homo sapiens, UniProt P11362).
T7 construct: purchased Eurofins KinaseProfiler
T7 sequence (P11362 22-822): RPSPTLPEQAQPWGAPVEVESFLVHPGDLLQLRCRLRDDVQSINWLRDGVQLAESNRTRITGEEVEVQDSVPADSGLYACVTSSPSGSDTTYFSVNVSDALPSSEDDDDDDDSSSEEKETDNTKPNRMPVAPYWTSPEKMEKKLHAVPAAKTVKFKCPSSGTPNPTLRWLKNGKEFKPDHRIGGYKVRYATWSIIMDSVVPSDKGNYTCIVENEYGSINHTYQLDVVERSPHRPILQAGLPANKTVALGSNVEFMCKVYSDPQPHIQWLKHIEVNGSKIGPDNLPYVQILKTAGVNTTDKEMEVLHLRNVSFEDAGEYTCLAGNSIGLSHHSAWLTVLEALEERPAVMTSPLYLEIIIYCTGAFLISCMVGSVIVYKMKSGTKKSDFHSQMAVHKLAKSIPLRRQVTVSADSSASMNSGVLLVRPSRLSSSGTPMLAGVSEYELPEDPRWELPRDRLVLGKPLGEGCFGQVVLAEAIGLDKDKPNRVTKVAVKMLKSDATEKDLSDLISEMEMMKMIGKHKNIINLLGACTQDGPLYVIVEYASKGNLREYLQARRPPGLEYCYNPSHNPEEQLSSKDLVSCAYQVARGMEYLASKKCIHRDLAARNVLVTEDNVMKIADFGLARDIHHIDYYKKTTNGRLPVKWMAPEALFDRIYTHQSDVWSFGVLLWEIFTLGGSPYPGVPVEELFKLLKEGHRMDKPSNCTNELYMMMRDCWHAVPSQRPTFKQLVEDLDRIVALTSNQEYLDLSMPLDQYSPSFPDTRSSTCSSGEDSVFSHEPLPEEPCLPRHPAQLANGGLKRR
As to the method:
as §1

The target in a further test is T8, FGFR4(h) (Homo sapiens, UniProt P22455).
T8 construct: purchased Eurofins KinaseProfiler
As to the method:
as §1

The next test concerns the target T9, Flt4(h) (Homo sapiens, UniProt P35916).
T9 construct: purchased Eurofins KinaseProfiler
As to the method: as §1

The target in another test is T10, LKB1(h) (Homo sapiens, UniProt Q15831).
T10 construct: purchased Eurofins KinaseProfiler
The protocol:
as §1

The next test concerns the target T11, MELK(h) (Homo sapiens, UniProt Q14680).
T11 construct: purchased Eurofins KinaseProfiler
The protocol: as §1

In a further test the target is T12, MKK6(h) (Homo sapiens, UniProt P52564).
T12 construct: purchased Eurofins KinaseProfiler
As to the method: as §1

In the next test the target is T13, MKK7β(h) (Homo sapiens, UniProt O14733).
T13 construct: purchased Eurofins KinaseProfiler
As to the method:
as §1

The target of a further test is T14, MSK2(h) (Homo sapiens, UniProt O75676).
T14 construct: purchased Eurofins KinaseProfiler
As to the method:
as §1

Another test concerns the target T15, MST3(h) (Homo sapiens, UniProt Q9Y6E0).
T15 construct: purchased Eurofins KinaseProfiler
The protocol: as §1

A further test has as its target T16, c-RAF(h) (Homo sapiens, UniProt P04049).
T16 construct: purchased Eurofins KinaseProfiler
The protocol:
as §1

The target in another test is T17, cSRC(h) (Homo sapiens, UniProt P12931).
T17 construct: purchased Eurofins KinaseProfiler
As to the method:
as §1

Another test concerns the target T18, AMPKα1(h) (Homo sapiens, UniProt Q13131).
T18 construct: purchased Eurofins KinaseProfiler
The protocol:
as §1

Another test concerns the target T19, AMPKα2(h) (Homo sapiens, UniProt P54646).
T19 construct: purchased Eurofins KinaseProfiler
As to the method:
as §1

The target of a further test is T20, ATM(h) (Homo sapiens, UniProt Q13315).
T20 construct: purchased Eurofins KinaseProfiler
The protocol:
as §1

In the next test the target is T21, CaMKIIα(h) (Homo sapiens, UniProt Q9UQM7).
T21 construct: purchased Eurofins KinaseProfiler
The settings on record: 100 nM. As to the method:
as §1

A further test deals with T22, IKKβ(h) (Homo sapiens, UniProt O14920).
T22 construct: purchased Eurofins KinaseProfiler
The protocol: as §1

The target in a further test is T23, JAK3(h) (Homo sapiens, UniProt P52333).
T23 construct: purchased Eurofins KinaseProfiler
As to the method: as §1

Another test deals with T24, JNK1α1(h) (Homo sapiens, UniProt P45983).
T24 construct: purchased Eurofins KinaseProfiler
The protocol:
as §1

For the next test, the target named is T25, JNK2α2(h) (Homo sapiens, UniProt P45984).
T25 construct: purchased Eurofins KinaseProfiler
As to the method:
as §1

The next test deals with T26, KDR(h) (Homo sapiens, UniProt P35968).
T26 construct: purchased Eurofins KinaseProfiler
The settings on record: 100 nM. As to the method:
as §1

The target of another test is T27, PAK3(h) (Homo sapiens, UniProt O75914).
T27 construct: purchased Eurofins KinaseProfiler
T27 sequence (O75914 whole entry): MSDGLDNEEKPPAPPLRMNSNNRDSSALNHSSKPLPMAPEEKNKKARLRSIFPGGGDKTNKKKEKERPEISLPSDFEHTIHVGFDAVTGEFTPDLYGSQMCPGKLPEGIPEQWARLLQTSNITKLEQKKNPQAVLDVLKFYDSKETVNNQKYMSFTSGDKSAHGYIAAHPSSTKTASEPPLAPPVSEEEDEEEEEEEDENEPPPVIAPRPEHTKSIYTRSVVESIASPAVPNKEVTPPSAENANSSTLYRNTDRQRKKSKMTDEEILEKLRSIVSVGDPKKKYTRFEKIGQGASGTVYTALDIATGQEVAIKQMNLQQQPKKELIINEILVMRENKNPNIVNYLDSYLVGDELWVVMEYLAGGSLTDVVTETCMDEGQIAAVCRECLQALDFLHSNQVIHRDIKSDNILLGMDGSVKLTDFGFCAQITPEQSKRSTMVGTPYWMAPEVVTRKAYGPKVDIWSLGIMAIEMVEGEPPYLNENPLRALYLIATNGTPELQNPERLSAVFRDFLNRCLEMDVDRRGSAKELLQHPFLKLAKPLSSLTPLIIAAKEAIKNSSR
The protocol:
as §1

The target in another test is T28, PDGFRα(h) (Homo sapiens, UniProt P16234).
T28 construct: purchased Eurofins KinaseProfiler
The protocol:
as §1

A further test deals with T29, PKBβ(h) (Homo sapiens, UniProt P31751).
T29 construct: purchased Eurofins KinaseProfiler
T29 sequence (P31751 whole entry): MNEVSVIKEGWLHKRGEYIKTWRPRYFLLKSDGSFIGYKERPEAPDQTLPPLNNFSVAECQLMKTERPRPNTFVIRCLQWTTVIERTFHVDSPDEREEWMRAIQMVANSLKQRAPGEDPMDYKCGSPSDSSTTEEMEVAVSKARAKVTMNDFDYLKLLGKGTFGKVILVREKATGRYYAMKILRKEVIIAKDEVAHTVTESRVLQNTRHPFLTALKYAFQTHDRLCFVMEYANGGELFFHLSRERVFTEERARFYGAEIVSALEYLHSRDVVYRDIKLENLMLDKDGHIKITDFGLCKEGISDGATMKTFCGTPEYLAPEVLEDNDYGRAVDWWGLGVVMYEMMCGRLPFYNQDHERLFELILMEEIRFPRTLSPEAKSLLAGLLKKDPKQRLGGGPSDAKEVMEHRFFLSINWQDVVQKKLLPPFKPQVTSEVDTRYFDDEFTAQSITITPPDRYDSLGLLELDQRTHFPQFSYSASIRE
As to the method: as §1

The next test has as its target T30, PKCα(h) (Homo sapiens, UniProt P17252).
T30 construct: purchased Eurofins KinaseProfiler
The protocol:
as §1

The target of another test is T31, ROCK-II(h) (Homo sapiens, UniProt O75116).
T31 construct: purchased Eurofins KinaseProfiler
T31 sequence (O75116 whole entry): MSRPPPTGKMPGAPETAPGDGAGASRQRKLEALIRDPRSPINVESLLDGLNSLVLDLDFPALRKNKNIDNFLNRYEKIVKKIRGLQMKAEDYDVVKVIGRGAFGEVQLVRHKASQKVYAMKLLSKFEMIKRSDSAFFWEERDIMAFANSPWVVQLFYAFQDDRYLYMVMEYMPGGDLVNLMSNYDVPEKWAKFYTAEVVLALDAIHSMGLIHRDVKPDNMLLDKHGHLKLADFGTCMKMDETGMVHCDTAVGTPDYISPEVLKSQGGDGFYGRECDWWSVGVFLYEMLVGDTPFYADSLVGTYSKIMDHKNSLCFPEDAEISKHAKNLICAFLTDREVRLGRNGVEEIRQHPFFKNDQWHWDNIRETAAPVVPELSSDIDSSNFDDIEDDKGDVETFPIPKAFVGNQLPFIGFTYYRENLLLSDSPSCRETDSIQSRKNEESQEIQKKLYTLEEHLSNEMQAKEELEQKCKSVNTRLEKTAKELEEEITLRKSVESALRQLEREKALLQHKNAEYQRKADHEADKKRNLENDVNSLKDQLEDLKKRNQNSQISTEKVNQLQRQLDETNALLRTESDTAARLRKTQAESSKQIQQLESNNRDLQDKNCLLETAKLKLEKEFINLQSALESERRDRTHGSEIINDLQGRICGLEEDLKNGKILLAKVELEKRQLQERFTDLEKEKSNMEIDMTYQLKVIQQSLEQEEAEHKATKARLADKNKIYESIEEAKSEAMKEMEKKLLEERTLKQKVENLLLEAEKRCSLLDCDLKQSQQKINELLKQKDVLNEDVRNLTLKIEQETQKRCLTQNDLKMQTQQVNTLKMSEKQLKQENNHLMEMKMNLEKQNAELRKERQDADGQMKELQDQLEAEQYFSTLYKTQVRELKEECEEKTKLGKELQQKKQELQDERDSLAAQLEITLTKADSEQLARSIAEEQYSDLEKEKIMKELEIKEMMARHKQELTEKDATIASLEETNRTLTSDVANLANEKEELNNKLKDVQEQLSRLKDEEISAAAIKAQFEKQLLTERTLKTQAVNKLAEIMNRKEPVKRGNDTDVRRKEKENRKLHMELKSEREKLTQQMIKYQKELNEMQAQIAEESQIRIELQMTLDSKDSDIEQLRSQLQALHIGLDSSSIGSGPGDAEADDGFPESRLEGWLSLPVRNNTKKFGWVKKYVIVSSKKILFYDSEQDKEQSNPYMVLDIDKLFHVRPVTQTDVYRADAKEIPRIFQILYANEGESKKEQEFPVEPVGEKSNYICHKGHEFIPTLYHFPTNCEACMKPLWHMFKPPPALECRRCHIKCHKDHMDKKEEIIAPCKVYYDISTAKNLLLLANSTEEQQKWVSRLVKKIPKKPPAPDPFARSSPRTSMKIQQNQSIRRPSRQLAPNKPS
As to the method:
as §1

A further test addresses T32, Rsk3(h) (Homo sapiens, UniProt Q15349).
T32 construct: purchased Eurofins KinaseProfiler
The conditions noted are these: 100 nM. As to the method: as §1

Another test deals with T33, SAPK3(h) (Homo sapiens, UniProt P53778).
T33 construct: purchased Eurofins KinaseProfiler
The protocol: as §1

The target of a further test is T34, Snk(h) (Homo sapiens, UniProt Q9NYY3).
T34 construct: purchased Eurofins KinaseProfiler
The conditions noted are these: 100 nM. The protocol: as §1

The next test concerns the target T35, TYK2(h) (Homo sapiens, UniProt P29597).
T35 construct: purchased Eurofins KinaseProfiler
The conditions noted are these: 100 nM. The protocol: as §1

For another test, the target named is T36, mTOR(h) (Homo sapiens, UniProt P42345).
T36 construct: purchased Eurofins KinaseProfiler
As to the method:
as §1

Another test deals with T37, CDK12/cyclinK(h) (Homo sapiens, UniProt Q9NYV4).
T37 construct: purchased Eurofins KinaseProfiler
The protocol: as §1

The target in another test is T38, CDK2/cyclinE(h) (Homo sapiens, UniProt P24941).
T38 construct: purchased Eurofins KinaseProfiler
The protocol:
as §1

The target in the next test is T39, CDK7/cyclinH/MAT1(h) (Homo sapiens, UniProt P50613).
T39 construct: purchased Eurofins KinaseProfiler
As to the method:
as §1

Another test addresses T40, MST2(h) (Homo sapiens, UniProt Q13188).
T40 construct: purchased Eurofins KinaseProfiler
The protocol:
as §1

A further test deals with T41, SAPK2a(h) (Homo sapiens, UniProt Q16539).
T41 construct: purchased Eurofins KinaseProfiler
The protocol: as §1

For another test, the target named is T42, TAO2(h) (Homo sapiens, UniProt Q9UL54).
T42 construct: purchased Eurofins KinaseProfiler
As to the method: as §1

T4 sequence (P06493 whole entry): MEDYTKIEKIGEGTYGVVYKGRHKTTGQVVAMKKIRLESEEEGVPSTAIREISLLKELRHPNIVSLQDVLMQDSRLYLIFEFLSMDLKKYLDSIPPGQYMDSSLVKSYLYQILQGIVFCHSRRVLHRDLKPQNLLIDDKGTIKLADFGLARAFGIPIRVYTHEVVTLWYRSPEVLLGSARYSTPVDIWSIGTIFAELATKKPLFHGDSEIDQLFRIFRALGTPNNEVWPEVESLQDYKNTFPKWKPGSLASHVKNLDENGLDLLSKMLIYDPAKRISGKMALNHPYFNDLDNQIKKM
T4 sequence (P14635 whole entry partner): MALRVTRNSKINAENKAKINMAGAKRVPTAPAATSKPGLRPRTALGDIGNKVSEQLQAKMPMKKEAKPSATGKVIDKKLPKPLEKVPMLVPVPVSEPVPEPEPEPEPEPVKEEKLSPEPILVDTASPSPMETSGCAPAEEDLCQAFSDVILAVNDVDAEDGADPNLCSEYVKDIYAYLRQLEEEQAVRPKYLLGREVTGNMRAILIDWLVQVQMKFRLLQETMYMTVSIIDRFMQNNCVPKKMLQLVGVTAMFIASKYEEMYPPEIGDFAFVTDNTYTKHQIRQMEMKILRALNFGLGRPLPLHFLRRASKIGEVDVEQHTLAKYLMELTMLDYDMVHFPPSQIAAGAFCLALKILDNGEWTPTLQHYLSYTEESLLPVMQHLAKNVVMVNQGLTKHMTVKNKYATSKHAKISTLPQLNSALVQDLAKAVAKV
T2 sequence (P15056 whole entry): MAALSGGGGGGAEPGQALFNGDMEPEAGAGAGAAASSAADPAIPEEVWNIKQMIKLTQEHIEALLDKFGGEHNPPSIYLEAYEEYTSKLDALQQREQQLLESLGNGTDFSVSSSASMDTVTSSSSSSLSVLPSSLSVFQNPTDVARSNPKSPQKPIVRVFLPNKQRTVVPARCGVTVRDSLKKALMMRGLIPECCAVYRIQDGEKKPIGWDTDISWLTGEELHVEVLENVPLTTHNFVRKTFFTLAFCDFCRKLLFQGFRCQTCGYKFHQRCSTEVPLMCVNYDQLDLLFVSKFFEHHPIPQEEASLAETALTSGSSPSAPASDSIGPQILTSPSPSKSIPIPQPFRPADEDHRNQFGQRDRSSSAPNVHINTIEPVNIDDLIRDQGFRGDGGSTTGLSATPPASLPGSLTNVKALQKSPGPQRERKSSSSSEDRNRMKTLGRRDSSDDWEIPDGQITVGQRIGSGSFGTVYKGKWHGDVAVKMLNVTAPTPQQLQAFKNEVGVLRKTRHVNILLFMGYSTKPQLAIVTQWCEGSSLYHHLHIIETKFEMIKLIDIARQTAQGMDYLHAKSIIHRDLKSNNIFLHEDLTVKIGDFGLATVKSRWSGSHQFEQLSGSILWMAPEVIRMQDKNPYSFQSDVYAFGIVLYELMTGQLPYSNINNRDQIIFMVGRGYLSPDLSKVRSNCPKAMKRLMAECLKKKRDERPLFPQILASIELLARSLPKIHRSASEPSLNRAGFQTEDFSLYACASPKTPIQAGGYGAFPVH

For `COc1cc2oc(-c3ccc(O)c(O)c3)cc(=O)c2c(O)c1OC` [Cirsiliol], the activity at 10 µM turned out to be 106% on B-Raf(V599E)(h) (10 µM); 104% on B-Raf(h) (10 µM); 105% at BRK(h); 97% on CDK1/cyclinB(h); 103% on CK1γ1(h); 109% at DCAMKL3(h). In addition, the activity at 10 µM at FGFR1(h) (10 µM) amounted to 103%; on FGFR4(h), 87%; on Flt4(h), 87%; on LKB1(h), 96%; on MELK(h), 100%; on MKK6(h) it was 112%. The activity at 10 µM was found to be 95% at MKK7β(h); 108% on MSK2(h); 103% on MST3(h); 104% at c-RAF(h) (10 µM); 133% on cSRC(h).

For the compound `COc1ccc(CCc2cc(OC)c(OC)c(OC)c2)cc1O` [Erianin], the activity at 0.1 µM was found to be 108% on AMPKα1(h); 118% at AMPKα2(h); 111% at ATM(h); 109% at B-Raf(V599E)(h); 103% at B-Raf(h); 90% at CaMKIIα(h). The activity at 0.1 µM on FGFR1(h) worked out at 118%; on IKKβ(h), 95%; at JAK3(h) it was 98%; on JNK1α1(h) it was 101%; at JNK2α2(h) it was 91%; at KDR(h), 96%. Moreover, the activity at 0.1 µM amounted to 99% on PAK3(h); 91% at PDGFRα(h); 97% at PKBβ(h); 89% at PKCα(h); 112% at ROCK-II(h); 108% on Rsk3(h). Further, the activity at 0.1 µM on SAPK3(h) stood at 112%; on Snk(h) it was 109%; at TYK2(h), 100%; on c-RAF(h) it was 85%; on mTOR(h), 104%.

In the case of `C=C1C(=O)[C@]23[C@H](O)[C@H]1CC[C@H]2[C@@]12CO[C@]3(O)[C@@H](O)[C@@H]1C(C)(C)CC[C@@H]2O` [Oridonin], the activity at 10 µM on AMPKα1(h) (10 µM) stood at 75%; at AMPKα2(h) (10 µM), 72%; at ATM(h) (10 µM) it was 71%; at CDK1/cyclinB(h), 63%; on CDK12/cyclinK(h), 98%; on CDK2/cyclinE(h) it was 57%. Besides, the activity at 10 µM was found to be 69% on CDK7/cyclinH/MAT1(h); 105% at IKKβ(h) (10 µM); 89% at JAK3(h) (10 µM); 107% on JNK1α1(h) (10 µM); 115% on JNK2α2(h) (10 µM); 69% on MSK2(h). The activity at 10 µM was 54% on MST2(h); 74% on MST3(h); 95% at PAK3(h) (10 µM); 71% at PDGFRα(h) (10 µM); 106% on PKBβ(h) (10 µM); 69% on PKCα(h) (10 µM). Besides, the activity at 10 µM worked out at 88% on ROCK-II(h) (10 µM); 141% at SAPK2a(h); 122% on SAPK3(h) (10 µM); 78% at TAO2(h); 59% at cSRC(h); 81% on mTOR(h) (10 µM).
